{"source": "patent US11466006B2", "about": "“Dual selective PI3 delta and gamma kinase inhibitors” (Rhizen Pharmaceuticals SA, priority 2013, dated 2022)", "tested_on": "TNF-α", "assay": "Lipopolysaccharide induced TNF-α production", "type": "in vivo, rat", "description": "Fasted female wistar rats were randomized into different groups depending on their body weights. Test compound (Compound A1) was prepared as a suspension in a vehicle consisting of 0.5% methylcellulose. The compound or vehicle was administered by oral gavage in a volume of 10 mL/kg. LPS solution was administered intraperitoneally one hour after compound administration at a dose of 0.3 mg/kg. Blood was collected in serum separator tubes via cardiac puncture ninety minutes after LPS injection. Serum was separated and stored at −20° C. and will be analysed for TNFα by ELISA.", "data": [{"smiles": "CC[C@H](Nc1ncnc2[nH]cnc12)c1oc2ccccc2c(=O)c1-c1cccc(F)c1", "note": "[Compound A1, (S)-2-(1-(9H-purin-6-ylamino)propyl)-3-(3-fluorophenyl)-4H-chromen-4-one]", "values": [{"measurement": "percent inhibition of plasma TNFα", "setting": "1 mg/kg po", "result": 5, "unit": "%"}, {"measurement": "percent inhibition of plasma TNFα", "setting": "3 mg/kg po", "result": 15, "unit": "%"}, {"measurement": "percent inhibition of plasma TNFα", "setting": "10 mg/kg po", "result": 40, "unit": "%"}]}]}
